What was measured:
OCT1 = target: T1, OCT1 (Homo sapiens, UniProt O15245); assay: Inhibition of net [14C]-metformin uptake in MDCK-OCT1 cells; assay type: cell-based; conditions: 50 μM metformin, 5 min, pH 7.4, efavirenz 0.01–50 μM, read-out: IC50, inhibition of net OCT1-mediated [14C]-metformin uptake
T1 construct: expressed in transfected cells; host or cells: MDCKII (MDCK-OCT1)
T1 sequence (O15245 1-554): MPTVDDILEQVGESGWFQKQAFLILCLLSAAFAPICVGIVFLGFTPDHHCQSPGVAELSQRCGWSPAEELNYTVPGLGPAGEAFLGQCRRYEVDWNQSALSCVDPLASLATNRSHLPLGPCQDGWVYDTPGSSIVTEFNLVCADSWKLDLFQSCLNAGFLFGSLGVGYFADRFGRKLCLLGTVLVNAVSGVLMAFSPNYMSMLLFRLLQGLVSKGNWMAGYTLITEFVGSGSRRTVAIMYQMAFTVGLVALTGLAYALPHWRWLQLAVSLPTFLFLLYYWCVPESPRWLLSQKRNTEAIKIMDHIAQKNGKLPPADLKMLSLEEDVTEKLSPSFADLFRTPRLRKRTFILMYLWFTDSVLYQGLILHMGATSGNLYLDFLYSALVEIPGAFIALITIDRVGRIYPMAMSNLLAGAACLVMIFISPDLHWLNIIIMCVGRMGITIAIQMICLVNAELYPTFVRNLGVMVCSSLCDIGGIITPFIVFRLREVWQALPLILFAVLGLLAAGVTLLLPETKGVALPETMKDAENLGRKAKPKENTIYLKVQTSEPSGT
Procedure: (§1) The singly-transfected OCT1, OCT2, MATE1 or control MDCK cells were seeded on 12-well plates at a density of 0.5 x 10^6 cells per well and cultivated in standard cultivation medium MEM (Gibco) + 10% FBS. Forty-eight hours after seeding, uptake experiments with radiolabelled metformin were performed. Cells were washed with 500 μl pre-warmed HBSS buffer of pH 7.4 (for OCTs) or 8.0 (for MATE1). Solutions of [^14C]-metformin (50 μM) in HBSS buffer of pH 7.4 or 8.0 with or without efavirenz were then added, and the resulting mixtures were left to stand for an accumulation period of 5 minutes. […] After the accumulation period, the solutions were aspirated and the cells were washed three times with 500 μl ice-cold HBSS buffer of pH 7.4 or 8.0 before being lysed with 0.02% sodium dodecyl sulphate (SDS). The intracellular accumulation of radioactivity was detected using a liquid scintillation counter (Tri-Carb 2910 TR Perkin Elmer), and protein concentrations in the cell lysates were measured by the BCA protein assay. Net transporter-mediated uptake was obtained by subtracting the accumulation of metformin in vector control cells from that in drug transporter-overexpressing cells.
(§2) A p value of ≤ 0.05 was considered statistically significant. […]

MATE1 [1] = target: T2, MATE1 (Homo sapiens, UniProt Q96FL8); assay: Inhibition of net [14C]-metformin uptake in MDCK-MATE1 cells; assay type: cell-based; conditions: 50 μM metformin, 5 min, pH 8.0, efavirenz 0.01–50 μM, read-out: IC50, inhibition of net MATE1-mediated [14C]-metformin uptake
T2 construct: expressed in transfected cells; host or cells: MDCKII (MDCK-MATE1)
T2 sequence (Q96FL8 whole entry): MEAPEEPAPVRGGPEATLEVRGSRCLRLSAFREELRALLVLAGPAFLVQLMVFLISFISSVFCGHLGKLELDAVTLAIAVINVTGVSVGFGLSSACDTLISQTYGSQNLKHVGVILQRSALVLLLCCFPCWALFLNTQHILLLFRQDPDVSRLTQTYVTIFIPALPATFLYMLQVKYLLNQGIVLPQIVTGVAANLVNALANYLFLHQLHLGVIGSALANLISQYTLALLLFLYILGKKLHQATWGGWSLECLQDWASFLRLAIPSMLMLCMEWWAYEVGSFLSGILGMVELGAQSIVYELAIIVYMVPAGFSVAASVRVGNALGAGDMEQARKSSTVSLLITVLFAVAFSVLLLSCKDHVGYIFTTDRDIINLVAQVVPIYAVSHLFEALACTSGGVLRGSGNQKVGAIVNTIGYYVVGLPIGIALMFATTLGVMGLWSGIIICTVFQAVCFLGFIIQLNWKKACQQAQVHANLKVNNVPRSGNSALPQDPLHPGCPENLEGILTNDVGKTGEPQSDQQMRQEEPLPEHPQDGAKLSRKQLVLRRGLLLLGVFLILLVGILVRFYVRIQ
Procedure: as §1, §2

MATE1 [2] = target: T2, MATE1; assay: Transcellular transport assay across MDCK-MATE1 monolayers; assay type: cell-based; conditions: 10 μM efavirenz, 2 h
Procedure: (§3) Transport experiments employing polarized monolayers of MDCK-OCT1, MDCK-OCT2, or MDCK-MATE1 cell lines as well as doubly transfected MDCK-OCT1-MATE1 or MDCK-OCT2-MATE1 lines and the non-transfected parental control MDCK-Co cells grown on Transwell 3402 cell culture inserts (3.0 μm pore size, 24 mm diameter; Costar, Corning, NY) were performed as described previously. The number of cells per well was 0.5 x 10^6 in all experiments, and the cells were incubated for 3 days to confluence in standard cultivation medium MEM (Gibco) + 10% FBS. After 3 days’ cultivation, medium was removed from both sides and the cells of the monolayer were washed using pre-warmed PBS. […] The pH of the medium on the basolateral side was 7.4, while that on the apical side was set to 6.0 (adjusted by adding HCl or NaOH, when necessary) to ensure optimal MATE1 transport activity. Cells were incubated at 37°C in 5% CO2 for 2 hours. At the end of the incubation period, 50 μl aliquots were sampled and the rest of the medium was immediately removed. The cells were then washed twice with ice-cold PBS, the membranes supporting cellular monolayers were excised, and the cells were dissolved in a 0.02% SDS solution. The radioactivity of the collected samples and lysed monolayers was measured by liquid scintillation counting (Tri-Carb 2910 TR Perkin Elmer), and the protein concentration of the cell lysates was quantified using the BCA protein assay. Transport rates were recorded in pmol per mg protein in the cellular monolayer.

OCT1 and MATE1 = assay: Transcellular transport assay across doubly transfected MDCK-OCT1-MATE1 monolayers; assay type: cell-based, human; conditions: 10 μM efavirenz, 2 h
Procedure: as §3

parental MDCK cell line = assay: Calcein efflux assay in parental MDCK cells; assay type: cell-based, canine; conditions: calcein AM 0.25 μM, efavirenz 0.01–50 μM
Procedure: ABC transporter-expressing MDCK cells were seeded in 96-well plates at a density of 25 x 10^3 cells per well and cultivated in DMEM medium supplemented with 10% FBS. […] Intracellular fluorescence was then measured using excitation and emission wavelengths of 350 nm and 465 nm, respectively. […] Calcein fluorescence was measured using excitation and emission wavelengths of 496 nm and 516 nm, respectively.

MDCK cell lines = assay: Cytotoxicity seen in accumulation assays in MDCK cell lines; assay type: cell-based, canine; conditions: 100 μM, highest tested concentration, all accumulation assays and MDCK cell lines
Source text: Therefore, both relative and absolute IC50 values are reported (Fig 3).

[3] = parameters: method as in earlier work; conditions: clinical; lamivudine 150 mg twice daily with efavirenz 600 mg once daily; cited from earlier work
MRP transporters = tested on: MRP transporters; parameters: method as in PMID 17172311; conditions: only at 50 μM; cited from earlier work
BCRP = tested on: BCRP; parameters: method as in PMID 17202245; conditions: only at 50 μM; cited from earlier work
MDR1 = MDR1 (Homo sapiens, UniProt P08183); assay: Hoechst 33342 accumulation assay in MDCK-MDR1 cells
Chain of MDR1 (P08183 whole entry): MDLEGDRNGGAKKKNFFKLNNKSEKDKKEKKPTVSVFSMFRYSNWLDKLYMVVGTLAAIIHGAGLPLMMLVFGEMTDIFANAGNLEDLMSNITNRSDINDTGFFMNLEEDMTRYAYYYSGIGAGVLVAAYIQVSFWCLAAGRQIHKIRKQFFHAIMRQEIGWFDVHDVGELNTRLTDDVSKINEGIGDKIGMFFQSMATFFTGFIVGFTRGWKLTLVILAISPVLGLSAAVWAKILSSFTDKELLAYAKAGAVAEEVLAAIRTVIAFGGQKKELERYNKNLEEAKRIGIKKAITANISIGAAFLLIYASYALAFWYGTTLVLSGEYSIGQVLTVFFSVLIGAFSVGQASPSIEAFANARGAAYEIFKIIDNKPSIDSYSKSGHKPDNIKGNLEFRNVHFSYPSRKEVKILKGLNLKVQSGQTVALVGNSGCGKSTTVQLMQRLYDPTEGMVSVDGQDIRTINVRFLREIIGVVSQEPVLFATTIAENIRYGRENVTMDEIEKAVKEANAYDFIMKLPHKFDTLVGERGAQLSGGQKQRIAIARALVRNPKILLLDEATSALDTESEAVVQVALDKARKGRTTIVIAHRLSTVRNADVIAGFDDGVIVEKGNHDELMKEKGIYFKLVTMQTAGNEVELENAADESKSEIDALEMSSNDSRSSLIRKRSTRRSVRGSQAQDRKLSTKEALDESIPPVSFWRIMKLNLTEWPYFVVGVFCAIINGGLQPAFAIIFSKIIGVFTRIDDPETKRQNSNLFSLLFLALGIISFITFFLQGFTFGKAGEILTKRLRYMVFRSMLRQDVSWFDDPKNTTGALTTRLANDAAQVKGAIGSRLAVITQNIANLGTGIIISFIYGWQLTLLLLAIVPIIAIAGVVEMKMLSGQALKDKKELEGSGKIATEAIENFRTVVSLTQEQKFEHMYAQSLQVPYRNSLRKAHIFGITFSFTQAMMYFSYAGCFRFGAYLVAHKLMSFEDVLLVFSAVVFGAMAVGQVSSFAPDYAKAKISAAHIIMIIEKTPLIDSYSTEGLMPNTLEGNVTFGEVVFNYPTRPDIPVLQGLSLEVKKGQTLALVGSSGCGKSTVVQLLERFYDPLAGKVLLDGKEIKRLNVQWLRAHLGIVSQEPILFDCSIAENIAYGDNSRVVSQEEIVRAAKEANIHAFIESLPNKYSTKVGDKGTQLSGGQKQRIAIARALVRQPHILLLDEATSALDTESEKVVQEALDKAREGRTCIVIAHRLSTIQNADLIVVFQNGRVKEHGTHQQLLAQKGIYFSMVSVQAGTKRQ
Procedure: ABC transporter-expressing MDCK cells were seeded in 96-well plates at a density of 25 x 10^3 cells per well and cultivated in DMEM medium supplemented with 10% FBS. Forty-eight hours after seeding, the cells were used in accumulation experiments with Hoechst 33342 (a common fluorescent substrate of MDR1 and BCRP) or efflux assays with Calcein (a fluorescent substrate of MRP2). Briefly, at the end of the 48 hours, the medium was aspirated and the cells were washed with pre-warmed PBS and then preincubated with efavirenz in Opti-MEM for 30 minutes. In the Hoechst 33342 assays, a solution of Hoechst 33342 (50 μg/ml) in Opti-MEM was added and allowed to accumulate for 30 minutes. The experiment was stopped by aspirating the medium and washing the cells twice with ice cold PBS. Intracellular fluorescence was then measured using excitation and emission wavelengths of 350 nm and 465 nm, respectively. In the calcein efflux assays, a solution of calcein AM in Opti-MEM with or without efavirenz was added after the pre-incubation phase and allowed to accumulate for 15 minutes. […] Calcein fluorescence was measured using excitation and emission wavelengths of 496 nm and 516 nm, respectively.
Statistical analyses were performed using GraphPad Prism, version 7.03 (GraphPad Software, San Diego, CA). P values were calculated using multiple two-tailed t-tests or one-way ANOVA followed by Dunnett’s or Bonferroni’s multiple comparison test, as appropriate. […] The half-maximal inhibitory concentration (IC50) was calculated by non-linear regression analysis using sigmoidal Hill kinetics.
Model inhibitors of MDR1, BCRP and MRP2, namely LY335979 (LY, 1 μM), Ko143 (2.5 μM), and MK571 (10 μM), respectively, were used as positive controls at the minimal concentrations causing maximal inhibition in the corresponding cellular system and assay. […] Data were analyzed by one-way ANOVA followed by Bonferroni’s multiple comparison test (* P ≤ 0.05, ** P ≤ 0.01, *** P ≤ 0.001) and are presented as means ± SD of at least three experiments (n = 3–5) performed in triplicate.

With `O=C1Nc2ccc(Cl)cc2[C@@](C#CC2CC2)(C(F)(F)F)O1` [efavirenz, Efavirenz] the IC50 (OCT1) was 2300 nM, the IC50 (MATE1 [1]) was 3.85 µM and the “Effect on basolateral-to-apical transport of [3H]-MPP+” value (MATE1 [2]; 2 nM MPP+, MDCK-MATE1) was “Inhibition”. The “Effect on intracellular accumulation of [3H]-MPP+” value (MATE1 [2]; 2 nM MPP+, MDCK-MATE1 monolayers) was “increased”, the “Effect on intracellular accumulation of [3H]-lamivudine” value (MATE1 [2]; 10 nM lamivudine, MDCK-MATE1) was “enhanced” and the “Effect on basolateral-to-apical transport of [3H]-MPP+” value (OCT1 and MATE1; 2 nM MPP+, MDCK-OCT1-MATE1) was “Inhibition”. The “Effect on intracellular accumulation of [3H]-MPP+” value (OCT1 and MATE1; 2 nM MPP+, MDCK-OCT1-MATE1 monolayers) was “unaffected”, the “Effect on intracellular accumulation of [3H]-lamivudine” value (OCT1 and MATE1; 10 nM lamivudine, OCT1-MATE1 cells) was “remained unaffected” and the “Effect on transcellular transport of [3H]-lamivudine” value (OCT1 and MATE1; 10 nM lamivudine, basal to apical, MDCK-OCT1-MATE1) was “significantly inhibited”. The “Inhibition of calcein efflux from parental MDCK cells” value (parental MDCK cell line) was “not”, the “Cytotoxicity in MDCK cell lines” value (MDCK cell lines) was “cytotoxicity” and the “Effect on lamivudine AUC” value [3] was “no effect”. For the same compound, the “Effect on lamivudine Cmax” value [3] was “no effect”, the “Increase of lamivudine Cmin” value [3] was 265% and the “Inhibition of MRP transporters” value (MRP transporters) was “inhibit”. For the same compound, the “Inhibition of BCRP” value (BCRP) was “inhibit”, the “Concentrations showing an inhibitory effect on MDR1” value (MDR1; Hoechst 33342 accumulation) was ≥ 25 µM and the IC50 (MDR1; MDR1 absolute IC50, Hoechst 33342 accumulation, control inhibitor LY335979 1 μM = 100%) was 33.3 µM. The IC50 (MDR1; MDR1 relative IC50, Hoechst 33342 accumulation, maximal inhibition by efavirenz alone = 100%) was 24.4 µM.

— PMC6095608 (PLoS ONE, 2018)
